Results: paper PMC8457330 (Journal of medicinal chemistry, 2021)

Key:
SARS-CoV = settings: read-out: SARS-CoV antiviral EC50; VeroE6 cells; cited from earlier work
SARS-CoV-2 = assay: Antiviral activity, quantitative VeroE6 cell-based assay with RNA-qPCR; settings: VeroE6 cells, EC50 ratio versus compound 1
SARS-CoV 3CLpro = SARS-CoV 3CLpro (Severe acute respiratory syndrome coronavirus, UniProt P0C6X7); assay: biochemical
SARS-CoV-2 3CLpro = SARS-CoV-2 3CLpro (Severe acute respiratory syndrome coronavirus 2, UniProt P0DTD1); type: biochemical

Row | Structure (SMILES) | fold reduction in antiviral activity compared to 1 (SARS-CoV-2) [fold] | IC50 (SARS-CoV 3CLpro) [nM] | other results
1 | O=C(Oc1cncc(Cl)c1)c1cccc2[nH]ccc12 [Compound 1, 5-chloropyridin-3-yl 1H-indole-4-carboxylate] | – | – | EC50 (SARS-CoV): 6900 nM
2 | O=C(Oc1cncc(Cl)c1)c1cccc2c1CCN2 [Compound 2, 5-chloropyridin-3-yl indoline-4-carboxylate] | 5 | 190 | –
3 | O=C(Oc1cncc(Cl)c1)c1ccc2[nH]ccc2c1 [Compound 7a, 5-chloropyridin-3-yl 1H-indole-5-carboxylate] | – | 405 | –
4 | C=CCn1ccc2c(C(=O)Oc3cncc(Cl)c3)cccc21 [Compound 7d, 5-chloropyridin-3-yl 1-allyl-1H-indole-4-carboxylate] | ~5 | – | fold improvement in inhibitory potency over 1 (SARS-CoV-2 3CLpro; versus compound 1): over 5 fold
5 | C=CCc1cn(CC=C)c2cccc(C(=O)Oc3cncc(Cl)c3)c12 [Compound 7e, 5-chloropyridin-3-yl 1,3-diallyl-1H-indole-4-carboxylate] | – | – | fold reduction in enzyme inhibitory activity (SARS-CoV-2 3CLpro; bis-allyl 7e versus 7d): 5 fold
